{"source": "patent US20090297656A1", "about": "“Liquid Formulation Based On a Guanidinoacetic Acid Component” (priority 2005, published 2009)", "key": {"[1]": {"test": "Storage stability in aqueous solution at pH 3.5 and room temperature", "assay_type": "physicochemical", "details": "pH 3.5, room temperature", "text": "The rate of breakdown is dependent on the pH of the solution and temperature, with the concentration not playing a role. Particularly in the acid pH region, this breakdown to creatinine proceeds very rapidly. At room temperature and pH 3.5, creatine is already more than 20% converted to creatinine after 3 days and the physiological effect is lost. A pH of 3.5 is a typical pH for, for example, a soft drink. Owing to the rapid breakdown of creatine in this environment, the use of creatine, in particular creatine monohydrate, in aqueous or moist formulations for human and animal nutrition is virtually excluded. Even the pH in the stomach of 1 to 2 can, depending on the residence time, lead to significant breakdown of creatine to form creatinine.\nAccording to FIG. 1, the storage stability of creatine was determined in comparison with a mixture of 4 parts by weight of guanidinoacetic acid and 6 parts by weight of betaine in aqueous solution at pH 3.5 and room temperature: whereas creatine, after 3 days, is already more than 20% converted to creatinine, in the mixture of guanidinoacetic acid and betaine under identical conditions, after 90 days, 95% of the initial amount was still detectable as guanidinoacetic acid."}, "[2]": {"details": "cited from earlier work"}, "Solubility in water": {"test": "Solubility in water", "assay_type": "physicochemical", "details": "room temperature", "text": "In comparison with creatine, guanidinoacetic acid has a lower solubility in water (3.8 g per liter at room temperature). […] Therefore, for example, even in half a liter of an aqueous drink, a physiologically meaningful daily dose of the guanidinoacetic acid component can be incorporated without problem."}, "[3]": {"test": "Stability under pasteurization or sterilization of aqueous preparations", "assay_type": "physicochemical", "details": "in contrast to creatine", "text": "In the production process, aqueous preparations, such as those according to the invention, also, are generally pasteurized or sterilized. […] These advantages were unexpected in this manner in their totality."}, "Staphyllococcus aureus": {"tested_on": "Staphyllococcus aureus", "details": "animal experiments; cited from earlier work"}, "[4]": {"details": "0.032% guanidinoacetic acid in hens' feed"}, "[5]": {"details": "chickens, less than 0.1% guanidinoacetic acid in the feed"}}, "note": "Like-named read-outs stand apart in the source and are kept apart here."}
{"smiles": "C[N+](C)(C)CC(=O)O", "note": "[Betaine, betaine]", "values": [{"measurement": "stability under the stated conditions", "setting": "[1]", "value": "completely stable"}]}
{"smiles": "CN(CC(=O)O)C(=N)N", "note": "[creatine, reference compound]", "values": [{"measurement": "weight gain", "setting": "[2]; chickens, 0.2% creatine in the feed", "value": 4, "unit": "%"}, {"measurement": "converted to creatinine", "setting": "[1]; after 3 days", "value": "more than 20%"}]}
{"smiles": "N=C(N)NCC(=O)O", "note": "[guanidinoacetic acid]", "values": [{"measurement": "solubility in water", "setting": "Solubility in water", "value": 3.8, "unit": "g per liter"}, {"measurement": "improved feed utilization", "setting": "[2]; [4]", "value": 3, "unit": "%"}, {"measurement": "weight gain", "setting": "[2]; [4]", "value": 3, "unit": "%"}, {"measurement": "lower feed consumption compared with the control group", "setting": "[2]; [5]", "value": 6, "unit": "%"}, {"measurement": "weight gain compared with the control group", "setting": "[2]; [5]", "value": 7, "unit": "%"}, {"measurement": "stability under pasteurization/sterilization conditions", "setting": "[3]", "value": "outstanding stability"}, {"measurement": "use against bacterial infections", "setting": "Staphyllococcus aureus", "value": "successfully used"}]}
